Article PMC9414551 (Pharmaceuticals, 2022)
Counter-ions that a name gives are not always drawn.

Columns and labels:
NMDAR = conditions: rat cortical membranes
NR1-2A NMDAR = NR1-2A NMDAR (Homo sapiens, UniProt Q05586+Q12879); test: Whole-cell automated patch-clamp (QPatch) in 1 mM Mg2+; assay type: cell-based; design: host or cells: CHO (CHO-hNR1-h2A), tetracycline-induced expression; conditions: 1 mM Mg2+
Protocol: (§1) Data were obtained in automated patch-clamp platform. […] Statistical results of one-way analysis of variance (ANOVA) followed by Tukey’s multiple comparisons test also reported p < 0.05 (*), p < 0.01 (**), p < 0.001 (***), and p < 0.0001 (****). Glu is glutamate.
(§2) For QPatch experiments, cells were grown in T-flasks first at 37 °C, 5% CO2 for 3 to 4 h, then at 30 °C, 5% CO2 for 18 to 24 h in DMEM/F12 medium with added 500 μM ketamine and 10 μg/mL tetracycline (except for NR1-2B-CHO cells) without additional antibiotics. Cells were manually detached from the culture dish and automatically dispensed in QPatch wells with extracellular solution in the presence of 1 mM Mg^2+ and 500 μM ketamine.
(§3) Holding potential was −80 mV, and voltage protocol included a depolarizing 2-s step pulse to +60 mV to check the quality of the seal and cell NMDAR expression level, followed by a 2-s ramp-up to holding potential.

NR1-2D NMDAR = NR1-2D NMDAR (Homo sapiens, UniProt O15399+Q05586); test: as above; assay type: cell-based; design: host or cells: CHO (CHO-hN1-h2D), tetracycline-induced expression; conditions: 1 mM Mg2+, −30 mV to −80 mV
NR1-2D NMDAR, sequence (O15399 28-1336, other chains not shown): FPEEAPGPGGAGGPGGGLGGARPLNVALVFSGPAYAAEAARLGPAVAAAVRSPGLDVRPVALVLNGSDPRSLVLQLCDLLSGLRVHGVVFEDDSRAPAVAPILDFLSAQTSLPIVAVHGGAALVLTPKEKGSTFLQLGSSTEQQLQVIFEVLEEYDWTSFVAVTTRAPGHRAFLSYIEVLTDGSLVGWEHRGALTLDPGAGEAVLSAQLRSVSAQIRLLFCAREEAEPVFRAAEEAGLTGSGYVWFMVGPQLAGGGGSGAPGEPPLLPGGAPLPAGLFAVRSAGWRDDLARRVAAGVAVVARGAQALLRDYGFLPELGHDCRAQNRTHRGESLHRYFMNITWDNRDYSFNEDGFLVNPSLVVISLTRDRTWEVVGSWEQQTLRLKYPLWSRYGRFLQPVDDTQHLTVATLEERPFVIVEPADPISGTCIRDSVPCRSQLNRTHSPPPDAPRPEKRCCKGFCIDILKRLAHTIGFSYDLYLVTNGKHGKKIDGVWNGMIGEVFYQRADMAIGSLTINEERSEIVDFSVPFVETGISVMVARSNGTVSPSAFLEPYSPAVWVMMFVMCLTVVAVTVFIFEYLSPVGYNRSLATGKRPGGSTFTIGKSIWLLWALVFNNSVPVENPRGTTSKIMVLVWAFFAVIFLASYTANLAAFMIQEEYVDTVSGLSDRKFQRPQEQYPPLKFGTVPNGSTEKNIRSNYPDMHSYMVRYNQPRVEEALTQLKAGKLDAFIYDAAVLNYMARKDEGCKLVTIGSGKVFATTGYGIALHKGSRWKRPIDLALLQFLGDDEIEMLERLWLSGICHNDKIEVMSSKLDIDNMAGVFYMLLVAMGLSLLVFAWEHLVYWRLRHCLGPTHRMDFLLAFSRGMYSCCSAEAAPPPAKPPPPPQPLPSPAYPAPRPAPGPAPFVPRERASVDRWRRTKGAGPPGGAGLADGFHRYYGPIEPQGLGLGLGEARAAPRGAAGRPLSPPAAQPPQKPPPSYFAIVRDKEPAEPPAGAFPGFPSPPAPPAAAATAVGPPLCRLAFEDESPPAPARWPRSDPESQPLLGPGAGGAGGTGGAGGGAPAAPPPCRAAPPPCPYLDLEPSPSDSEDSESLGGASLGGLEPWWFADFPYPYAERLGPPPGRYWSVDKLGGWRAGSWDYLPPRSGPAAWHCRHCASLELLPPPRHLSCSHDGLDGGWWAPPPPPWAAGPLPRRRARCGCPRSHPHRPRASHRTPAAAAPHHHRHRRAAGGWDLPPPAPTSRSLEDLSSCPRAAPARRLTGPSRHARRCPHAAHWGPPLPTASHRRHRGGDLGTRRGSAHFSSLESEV
Protocol: as §1, §2, §3

NR1-2B NMDAR = NR1-2B NMDAR (Homo sapiens, UniProt Q05586+Q13224); test: as above; assay type: cell-based; design: host or cells: CHO (CHO-hNR1-h2B), constitutive expression; conditions: 1 mM Mg2+
NR1-2B NMDAR, sequence (Q13224 27-1484, other chains not shown): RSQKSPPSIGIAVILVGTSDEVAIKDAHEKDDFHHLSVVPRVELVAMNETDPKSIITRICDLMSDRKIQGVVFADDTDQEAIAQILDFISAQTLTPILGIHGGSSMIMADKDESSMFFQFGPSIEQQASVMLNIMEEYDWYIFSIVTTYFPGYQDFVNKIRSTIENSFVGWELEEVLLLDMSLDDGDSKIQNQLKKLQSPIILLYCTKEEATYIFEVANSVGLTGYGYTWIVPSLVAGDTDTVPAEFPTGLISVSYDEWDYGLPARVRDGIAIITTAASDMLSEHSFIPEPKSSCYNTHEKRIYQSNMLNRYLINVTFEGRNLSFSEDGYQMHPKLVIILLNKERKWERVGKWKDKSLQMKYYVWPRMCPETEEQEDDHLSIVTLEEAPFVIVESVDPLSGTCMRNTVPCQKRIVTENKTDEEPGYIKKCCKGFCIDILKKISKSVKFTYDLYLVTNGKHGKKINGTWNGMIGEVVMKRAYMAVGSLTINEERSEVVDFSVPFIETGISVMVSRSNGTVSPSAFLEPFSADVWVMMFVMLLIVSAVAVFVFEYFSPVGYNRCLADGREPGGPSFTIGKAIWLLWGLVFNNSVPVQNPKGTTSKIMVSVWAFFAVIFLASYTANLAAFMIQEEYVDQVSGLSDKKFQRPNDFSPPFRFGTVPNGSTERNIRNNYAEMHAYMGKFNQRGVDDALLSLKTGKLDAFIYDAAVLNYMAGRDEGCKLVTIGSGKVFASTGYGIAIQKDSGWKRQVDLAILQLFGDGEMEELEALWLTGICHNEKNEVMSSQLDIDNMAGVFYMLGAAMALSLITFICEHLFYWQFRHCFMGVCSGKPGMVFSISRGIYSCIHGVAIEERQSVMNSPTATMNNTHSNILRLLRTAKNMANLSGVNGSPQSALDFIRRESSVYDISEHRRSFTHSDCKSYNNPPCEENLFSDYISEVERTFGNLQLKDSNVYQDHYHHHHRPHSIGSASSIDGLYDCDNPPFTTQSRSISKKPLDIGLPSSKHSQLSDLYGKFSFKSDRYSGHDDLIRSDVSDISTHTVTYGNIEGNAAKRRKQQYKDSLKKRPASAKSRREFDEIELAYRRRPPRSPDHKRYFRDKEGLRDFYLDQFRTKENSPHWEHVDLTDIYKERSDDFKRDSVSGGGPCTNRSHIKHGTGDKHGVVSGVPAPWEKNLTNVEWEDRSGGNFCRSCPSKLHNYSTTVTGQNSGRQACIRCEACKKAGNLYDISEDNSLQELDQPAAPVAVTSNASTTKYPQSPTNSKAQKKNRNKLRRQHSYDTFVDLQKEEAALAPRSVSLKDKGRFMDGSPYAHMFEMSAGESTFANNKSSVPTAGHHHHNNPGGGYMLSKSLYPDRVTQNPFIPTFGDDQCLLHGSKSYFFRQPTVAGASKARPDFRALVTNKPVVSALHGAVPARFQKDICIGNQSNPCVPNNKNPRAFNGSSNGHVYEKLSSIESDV
Protocol: as §1, §2, §3

NR1-2C NMDAR = NR1-2C NMDAR (Homo sapiens, UniProt Q05586+Q14957); test: as above; assay type: cell-based; design: host or cells: CHO (CHO-hN1-h2C), tetracycline-induced expression; conditions: 1 mM Mg2+
Protocol: as §1, §2, §3

[1] = 10 μM REL-1017, 1 μM L-glutamate
[2] = 10 μM REL-1017, 10 μM L-glutamate

NR1-2A NMDAR, sequence (Q12879 23-1464, other chains not shown): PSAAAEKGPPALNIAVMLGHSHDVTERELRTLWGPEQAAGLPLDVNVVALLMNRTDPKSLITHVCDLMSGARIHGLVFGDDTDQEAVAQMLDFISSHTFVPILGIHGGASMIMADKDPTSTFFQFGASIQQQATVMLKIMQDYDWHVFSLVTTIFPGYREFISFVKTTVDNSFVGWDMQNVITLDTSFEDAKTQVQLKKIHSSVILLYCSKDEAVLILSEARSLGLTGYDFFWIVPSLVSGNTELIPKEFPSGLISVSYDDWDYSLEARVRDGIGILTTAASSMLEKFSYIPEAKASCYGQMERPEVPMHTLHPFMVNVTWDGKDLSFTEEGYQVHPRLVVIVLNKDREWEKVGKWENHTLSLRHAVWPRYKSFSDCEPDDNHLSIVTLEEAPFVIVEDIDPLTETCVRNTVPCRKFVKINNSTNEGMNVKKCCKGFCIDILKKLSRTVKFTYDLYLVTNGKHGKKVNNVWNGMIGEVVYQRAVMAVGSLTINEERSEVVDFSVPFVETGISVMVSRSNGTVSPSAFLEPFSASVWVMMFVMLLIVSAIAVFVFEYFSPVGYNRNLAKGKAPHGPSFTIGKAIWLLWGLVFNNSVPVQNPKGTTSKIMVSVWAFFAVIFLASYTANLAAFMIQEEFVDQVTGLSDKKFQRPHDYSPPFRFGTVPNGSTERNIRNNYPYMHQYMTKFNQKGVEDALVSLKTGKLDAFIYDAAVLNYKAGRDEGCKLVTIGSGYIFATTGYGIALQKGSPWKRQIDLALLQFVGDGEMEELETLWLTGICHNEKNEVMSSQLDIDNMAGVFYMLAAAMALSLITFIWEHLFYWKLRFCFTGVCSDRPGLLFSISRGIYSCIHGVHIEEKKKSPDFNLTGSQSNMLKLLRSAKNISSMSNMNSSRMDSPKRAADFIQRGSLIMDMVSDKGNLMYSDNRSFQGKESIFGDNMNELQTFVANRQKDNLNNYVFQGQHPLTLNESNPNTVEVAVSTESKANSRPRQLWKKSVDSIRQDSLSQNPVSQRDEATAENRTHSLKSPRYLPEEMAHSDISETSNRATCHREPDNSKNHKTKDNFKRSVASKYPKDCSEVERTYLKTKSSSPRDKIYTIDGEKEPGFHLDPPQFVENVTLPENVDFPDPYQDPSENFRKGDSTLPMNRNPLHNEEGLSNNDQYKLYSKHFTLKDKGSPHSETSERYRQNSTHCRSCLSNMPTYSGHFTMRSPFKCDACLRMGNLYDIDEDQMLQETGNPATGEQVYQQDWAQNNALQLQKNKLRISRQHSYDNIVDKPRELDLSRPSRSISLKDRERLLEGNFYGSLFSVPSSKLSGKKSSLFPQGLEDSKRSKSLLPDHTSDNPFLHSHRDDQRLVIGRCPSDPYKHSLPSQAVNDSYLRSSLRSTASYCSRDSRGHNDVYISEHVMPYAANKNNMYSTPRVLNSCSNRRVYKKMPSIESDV

Row | Compound | IC50 (NMDAR; [3H]TCP 4 nM) [nM] | Ki (NMDAR; [3H]TCP, Cheng and Prusoff) [nM] | effect on L-glutamate-elicited current (NR1-2A NMDAR; [1]) | effect on L-glutamate-elicited current (NR1-2A NMDAR; 10 μM REL-1017, 10 μM L-glutamate, −30 mV to −80 mV) | effect on L-glutamate-elicited current (NR1-2D NMDAR; [1]) | effect on L-glutamate-elicited current (NR1-2D NMDAR; [2]) | effect on L-glutamate-elicited current (NR1-2B NMDAR; [1]) | effect on L-glutamate-elicited current (NR1-2B NMDAR; [2]) | effect on L-glutamate-elicited current (NR1-2C NMDAR; [1]) | effect on L-glutamate-elicited current (NR1-2C NMDAR; [2])
1 | COc1ccc2c(c1)[C@]13CCCC[C@@H]1[C@H](C2)N(C)CC3 [Dextromethorphan, dextromethorphan] | 2060 | 1400 | – | – | – | – | – | – | – | –
2 | CCC(=O)C(C[C@H](C)N(C)C)(c1ccccc1)c1ccccc1 [REL-1017, dextromethadone HCl] | – | – | inactive | significantly reduced | significantly reduced | significantly reduced | inactive | significantly reduced the elicited current only at −30 mV, −40 mV, and −50 mV | inactive | inactive
